Assay results taken from patent publication US20040063716A1, “Cholesterol biosynthesis inhibitors containing as the active ingredient tricyclic spiro compounds” (priority 2000, published 2004).

Biological target: T1, human FXa (Homo sapiens, UniProt P00742)
T1 construct: purchased Enzyme Research Laboratories, Inc
Assay: Measurement of human FXa inhibitory action (chromogenic substrate S-2222)
Format: biochemical
Conditions: human FXa 0.019 U/ml, S-2222 0.4 mM, 37° C., pH 7.5
Description: In vitro FXa inhibitory activity is measured in accordance with the method of Kettner et al. (Journal of Biological Chemistry, vol. 265, pages 18289 to 18297, 1990). To be more specific, human FXa (product of Enzyme Research Laboratories, Inc., 0.019 U/ml) is mixed with a test compound diluted with dimethylsulfoxide (DMSO) at various concentrations and a synthetic substrate S-2222 (Chromogenix AB, 0.4 mM). The mixtures are incubated at 37° C. in Tris-hydrochloric acid buffer (pH 7.5) while the absorbance at 405 nm is measured continuously. To calculate the FXa inhibitory activity of the test compound, the initial reaction velocity is compared with the value for a control containing no test compound. It should be noted that the FXa inhibitory activity of the test compound is generally indicated as IC50.

T1 sequence (P00742 235-488 limits assumed): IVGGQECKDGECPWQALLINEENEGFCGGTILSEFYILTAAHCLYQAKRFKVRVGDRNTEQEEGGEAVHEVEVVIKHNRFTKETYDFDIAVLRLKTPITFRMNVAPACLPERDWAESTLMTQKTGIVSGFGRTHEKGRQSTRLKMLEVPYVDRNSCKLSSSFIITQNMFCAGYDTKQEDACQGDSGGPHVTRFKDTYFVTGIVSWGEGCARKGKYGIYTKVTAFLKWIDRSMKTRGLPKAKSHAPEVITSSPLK
T1 sequence (P00742 41-179 partner limits assumed): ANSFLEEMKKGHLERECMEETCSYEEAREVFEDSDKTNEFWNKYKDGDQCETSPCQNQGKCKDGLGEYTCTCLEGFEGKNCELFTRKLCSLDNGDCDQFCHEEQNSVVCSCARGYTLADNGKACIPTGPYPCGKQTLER

SMILES | IC50 [nM]
O=C1CN(S(=O)(=O)c2ccc3cc(Cl)ccc3c2)CC2(CN3CCOCC3)OC3(CCN(c4ccncc4)CC3)CN12 (stereo not shown) [Example 61, 1,4-Diaza-4-(6-chloronaphthalen-2-ylsulfonyl)-6-(morpholinomethyl)-7-oxa-1′-(4-pyridyl)spiro[bicyclo[4.3.0]nonane-8,4′-piperidin]-2-one] | 2.8
O=C1CN(S(=O)(=O)c2ccc3nc(Cl)ccc3c2)CC2OC3(CCN(c4ccncc4)CC3)CN12 (stereo not shown) [Example 760, 1,4-Diaza-4-(2-chloroquinolin-6-ylsulfonyl)-7-oxa-1′-(4-pyridyl)spiro[bicyclo[4.3.0]nonane-8,4′-piperidin]-2-one] | 5.9
O=C1CN(S(=O)(=O)c2ccc3cc(Cl)ccc3c2)CC2OC3(CCN(c4ccncn4)CC3)CN12 (stereo not shown) [Example 10, 1,4-Diaza-4-(6-chloronaphthalen-2-ylsulfonyl)-7-oxa-1′-(4-pyrimidinyl)spiro[bicyclo[4.3.0]nonane-8,4′-piperidin]-2-one] | 5.4
CCOC(=O)C12CN(S(=O)(=O)c3ccc4cc(Cl)ccc4c3)CC(=O)N1CC1(CCN(c3ccncc3)CC1)O2 (stereo not shown) [Example 25, 1,4-Diaza-4-(6-chloronaphthalen-2-ylsulfonyl)-6-(ethoxycarbonyl)-7-oxa-1′-(4-pyridyl)spiro[bicyclo[4.3.0]nonane-8,4′-piperidin]-2-one] | 1.5
O=C1CN(S(=O)(=O)C=Cc2ccc(Cl)s2)CC2NC3(CCN(c4ccncc4)CC3)CN12 (stereo not shown) [Example 628, 1,4,7-Triaza-4-[2-(5-chlorothiophen-2-yl)ethenesulfonyl]-1′-(4-pyridyl)spiro[bicyclo[4.3.0]nonane-8,4′-piperidin]-2-one] | 5.3
COCC12CN(S(=O)(=O)C=Cc3ccc(Cl)s3)CC(=O)N1CC1(CCN(c3ccncc3)CC1)N2 (stereo not shown) [Example 712, 1,4,7-Triaza-4-[2-(5-chlorothiophen-2-yl)ethenesulfonyl]-6-(methoxymethyl)-1′-(4-pyridyl)spiro[bicyclo[4.3.0]nonane-8,4′-piperidin]-2-one] | 1.8
CCOC(=O)NCC12CN(S(=O)(=O)c3ccc4cc(Cl)ccc4c3)CC(=O)N1CC1(CCN(c3ccncc3)CC1)O2 (stereo not shown) [Example 59, 1,4-Diaza-4-(6-chloronaphthalen-2-ylsulfonyl)-6-(ethoxycarbonylaminomethyl)-7-oxa-1′-(4-pyridyl)spiro[bicyclo[4.3.0]nonane-8,4′-piperidin]-2-one] | 3.4
COCC12CN(S(=O)(=O)C=Cc3ccc(Cl)s3)CC(=O)N1CC1(CCN(c3ccncc3)CC1)O2 (stereo not shown) [Example 684, 1,4-Diaza-4-[2-(5-chlorothiophen-2-yl)ethenesulfonyl]-6-(methoxymethyl)-7-oxa-1′-(4-pyridyl)spiro[bicyclo[4.3.0]nonane-8,4′-piperidin]-2-one] | 1.8
COCC12CN(S(=O)(=O)c3ccc4cc(Cl)ccc4c3)CC(=O)N1CC1(CCN(c3ccncc3)CC1)O2 (stereo not shown) [Example 1, 1,4-Diaza-4-(6-chloronaphthalen-2-ylsulfonyl)-6-(methoxymethyl)-7-oxa-1′-(4-pyridyl)spiro[bicyclo[4.3.0]nonane-8,4′-piperidin]-2-one] | 3.2
O=C1CN(S(=O)(=O)c2ccc3cc(Cl)ccc3c2)CC2NC3(CCN(c4ccncc4)CC3)CN12 (stereo not shown) [Example 765, 1,4,7-Triaza-4-(6-chloronaphthalen-2-ylsulfonyl)-1′-(4-pyridyl)spiro[bicyclo[4.3.0]nonane-8,4′-piperidin]-2-one] | 5.7

System: human plasma
Assay: Measurement of intrinsic coagulation time (APTT) in vitro
Format: biochemical
Conditions: not given
Description: Activated partial thromboplastin time (APTT) is measured in the presence of the test compounds diluted at various concentrations. A test compound diluted with DMSO at various concentrations is mixed with human plasma and APTT reagent. The mixture is incubated at 37° C. for 2 minutes; calcium chloride (25 mM) is added to the mixture; and the coagulation time is thereafter measured. It should be noted that the anticoagulant activity of the test compound is described in terms of the concentration required to double the coagulation time for the case where no test compound is added.

SMILES | Concentration required to double coagulation time [µM]
COCC12CN(S(=O)(=O)c3cc4ccc(Cl)cc4s3)CC(=O)N1CC1(CCN(c3ccncc3)CC1)O2 (stereo not shown) [Example 399, 1,4-Diaza-4-(6-chlorobenzo[b]thiophen-2-ylsulfonyl)-6-(methoxymethyl)-7-oxa-1′-(4-pyridyl)spiro[bicyclo[4.3.0]nonane-8,4′-piperidin]-2-one] | 0.18
COCC12CN(S(=O)(=O)c3ccc4ccccc4c3)CC(=O)N1CC1(CCN(c3ccncc3)CC1)O2 (stereo not shown) [Example 6, 1,4-Diaza-6-(methoxymethyl)-4-(2-naphthalenesulfonyl)-7-oxa-1′-(4-pyridyl)spiro[bicyclo[4.3.0]nonane-8,4′-piperidin]-2-one] | 0.99
COCC12CN(S(=O)(=O)C3=Cc4ccc(Cl)cc4OC3)CC(=O)N1CC1(CCN(c3ccncc3)CC1)O2 (stereo not shown) [Example 388, 1,4-Diaza-4-(7-chloro-2H-benzopyran-3-sulfonyl)-6-(methoxymethyl)-7-oxa-1′-(4-pyridyl)spiro[bicyclo[4.3.0]nonane-8,4′-piperidin]-2-one] | 0.22
COCC12CN(S(=O)(=O)c3ccc4cc(Cl)ccc4c3)CC(=O)N1CC1(CCN(c3cc[n+](C)cc3)CC1)O2.Cc1ccc(S(=O)(=O)[O-])cc1 (stereo not shown) [Example 23, 4-[1,4-Diaza-4-(6-chloronaphthalen-2-ylsulfonyl)-6-(methoxymethyl)-7-oxa-2-oxospiro[bicyclo[4.3.0]nonane-8,4′-piperidin-1′-yl]]-1-methylpyridinium p-Toluenesulfonate] | 0.62
COCC12CN(S(=O)(=O)c3cc4cc(Cl)ccc4o3)CC(=O)N1CC1(CCN(c3ccncc3)CC1)N2 (stereo not shown) [Example 471, 1,4,7-Triaza-4-(5-chlorobenzo[b]furan-2-ylsulfonyl)-6-(methoxymethyl)-1′-(4-pyridyl)spiro[bicyclo[4.3.0]nonane-8,4′-piperidin]-2-one] | 0.27
CC(C)OC(=O)C12CN(S(=O)(=O)c3ccc4cc(Cl)ccc4c3)CC(=O)N1CC1(CCN(c3ccncc3)CC1)O2 (stereo not shown) [Example 29, 1,4-Diaza-4-(6-chloronaphthalen-2-ylsulfonyl)-6-(isopropoxycarbonyl)-7-oxa-1′-(4-pyridyl)spiro[bicyclo[4.3.0]nonane-8,4′-piperidin]-2-one] | 0.90
COCC12CN(S(=O)(=O)c3cc4ccc(Cl)cc4s3)CC(=O)N1CC1(CCN(c3ccncc3)CC1)N2 (stereo not shown) [Example 461, 1,4,7-Triaza-4-(6-chlorobenzo[b]thiophen-2-ylsulfonyl)-6-(methoxymethyl)-1′-(4-pyridyl)spiro[bicyclo[4.3.0]nonane-8,4′-piperidin]-2-one] | 0.16
CC12CN(S(=O)(=O)c3ccc4cc(Cl)ccc4c3)CC(=O)N1CC1(CCN(c3ccncc3)CC1)O2 (stereo not shown) [Example 69, 1,4-Diaza-4-(6-chloronaphthalen-2-ylsulfonyl)-6-methyl-7-oxa-1′-(4-pyridyl)spiro[bicyclo[4.3.0]nonane-8,4′-piperidin]-2-one] | 0.36
COCCOC(=O)C12CN(S(=O)(=O)c3ccc4cc(Cl)ccc4c3)CC(=O)N1CC1(CCN(c3ccncc3)CC1)O2 (single isomer, unassigned; (-)) [Example 42, (−)-1,4-Diaza-4-(6-chloronaphthalen-2-ylsulfonyl)-6-(2-methoxyethoxycarbonyl)-7-oxa-1′-(4-pyridyl)spiro[bicyclo[4.3.0]nonane-8,4′-piperidin]-2-one] | 0.20
COCC12CN(S(=O)(=O)c3cc4cc(Cl)ccc4o3)CC(=O)N1CC1(CCN(c3ccncc3)CC1)N2C (stereo not shown) [Example 533, 1,4,7-Triaza-4-(5-chlorobenzo[b]furan-2-ylsulfonyl)-6-(methoxymethyl)-7-methyl-1′-(4-pyridyl)spiro[bicyclo[4.3.0]nonane-8,4′-piperidin]-2-one] | 0.35
O=C1CN(S(=O)(=O)c2cc3ccc(Cl)cc3s2)CC2NC3(CCN(c4ccncc4)CC3)CN12 (stereo not shown) [Example 275, 1,4,7-Triaza-4-(6-chlorobenzo[b]thiophen-2-ylsulfonyl)-1′-(4-pyridyl)spiro[bicyclo[4.3.0]nonane-8,4′-piperidin]-2-one] | 0.17
O=C1CN(S(=O)(=O)c2ccc3cc(Cl)ccc3c2)CC2OC3(CCN(c4ccncc4)CC3)CN12 (stereo not shown) [Example 9, 1,4-Diaza-4-(6-chloronaphthalen-2-ylsulfonyl)-7-oxa-1′-(4-pyridyl)spiro[bicyclo[4.3.0]nonane-8,4′-piperidin]-2-one] | 0.29
NCC12CN(S(=O)(=O)c3ccc4cc(Cl)ccc4c3)CC(=O)N1CC1(CCN(c3ccncc3)CC1)O2 (stereo not shown) [Example 58, 6-(Aminomethyl)-1,4-diaza-4-(6-chloronaphthalen-2-ylsulfonyl)-7-oxa-1′-(4-pyridyl)spiro[bicyclo[4.3.0]nonane-8,4′-piperidin]-2-one] | 0.18
COCC12CN(S(=O)(=O)C=Cc3ccc(Cl)s3)CC(=O)N1CC1(CCN(c3ccncc3)CC1)N2C (stereo not shown) [Example 740, 1,4,7-Triaza-4-[2-(5-chlorothiophen-2-yl)ethenesulfonyl]-6-(methoxymethyl)-7-methyl-1′-(4-pyridyl)spiro[bicyclo[4.3.0]nonane-8,4′-piperidin]-2-one] | 0.18
O=C1CN(S(=O)(=O)C=Cc2ccc(Cl)s2)CC2OC3(CCN(c4ccncc4)CC3)CN12 (stereo not shown) [Example 600, 1,4-Diaza-4-[2-(5-chlorothiophen-2-yl)ethenesulfonyl]-7-oxa-1′-(4-pyridyl)spiro[bicyclo[4.3.0]nonane-8,4′-piperidin]-2-one] | 0.22
